The NIST ThermoML archive (doi:10.1016/j.jct.2018.08.035)

Assay: xn = mol fraction of the nth substance listed
Settings: 100 kPa, Liquid, Vibrating tube method

CCC(O)CC [3-pentanol] + C[N+](=O)[O-]
Settings | mass density [kg/m3]
286.95 K, x1 = 0.629 | 904.586
287.05 K, x1 = 0.629 | 904.424
287.15 K, x1 = 0.629 | 904.324
287.25 K, x1 = 0.629 | 904.302
287.35 K, x1 = 0.629 | 904.234
287.45 K, x1 = 0.629 | 904.174
287.55 K, x1 = 0.629 | 904.105
287.66 K, x1 = 0.629 | 904.02
287.75 K, x1 = 0.629 | 903.747
287.86 K, x1 = 0.629 | 903.73
287.96 K, x1 = 0.629 | 903.653
288.06 K, x1 = 0.629 | 903.559
288.16 K, x1 = 0.629 | 903.339
288.26 K, x1 = 0.629 | 903.249
288.36 K, x1 = 0.629 | 903.208
288.46 K, x1 = 0.629 | 903.194
288.56 K, x1 = 0.629 | 903.023
288.66 K, x1 = 0.629 | 902.916
288.75 K, x1 = 0.629 | 902.883
288.86 K, x1 = 0.629 | 902.656
288.95 K, x1 = 0.629 | 902.639
289.06 K, x1 = 0.629 | 902.563
289.15 K, x1 = 0.246 | 1016.83
289.15 K, x1 = 0.266 | 1014.93
289.15 K, x1 = 0.275 | 1013.85
289.15 K, x1 = 0.3 | 1007.8
289.15 K, x1 = 0.325 | 1002.84
289.15 K, x1 = 0.338 | 1001.68
289.15 K, x1 = 0.363 | 999.874
289.15 K, x1 = 0.382 | 999.889
289.15 K, x1 = 0.407 | 999.35
289.15 K, x1 = 0.486 | 980.562
289.15 K, x1 = 0.488 | 978.895
289.15 K, x1 = 0.546 | 955.829
289.15 K, x1 = 0.573 | 937.786
289.15 K, x1 = 0.615 | 911.044
289.15 K, x1 = 0.629 | 902.484
289.16 K, x1 = 0.587 | 928.424
289.25 K, x1 = 0.246 | 1015.69
289.25 K, x1 = 0.266 | 1014.12
289.25 K, x1 = 0.275 | 1013.22
289.25 K, x1 = 0.3 | 1007.17
289.25 K, x1 = 0.325 | 1002.28
289.25 K, x1 = 0.338 | 1000.75
289.25 K, x1 = 0.363 | 998.168
289.25 K, x1 = 0.382 | 998.358
289.25 K, x1 = 0.407 | 997.887
289.25 K, x1 = 0.414 | 998.161
289.25 K, x1 = 0.486 | 979.734
289.25 K, x1 = 0.488 | 978.223
289.25 K, x1 = 0.546 | 953.328
289.25 K, x1 = 0.573 | 937.432
289.25 K, x1 = 0.587 | 924.098
289.25 K, x1 = 0.629 | 902.36
289.26 K, x1 = 0.615 | 910.892
289.35 K, x1 = 0.3 | 1006.58
289.35 K, x1 = 0.338 | 999.725
289.36 K, x1 = 0.246 | 1014.41
289.36 K, x1 = 0.266 | 1013.24
289.36 K, x1 = 0.275 | 1012.41
289.36 K, x1 = 0.325 | 1001.72
289.36 K, x1 = 0.363 | 996.975
289.36 K, x1 = 0.382 | 996.614
289.36 K, x1 = 0.407 | 996.236
289.36 K, x1 = 0.414 | 996.775
289.36 K, x1 = 0.486 | 978.988
289.36 K, x1 = 0.488 | 977.267
289.36 K, x1 = 0.546 | 952.752
289.36 K, x1 = 0.573 | 936.899
289.36 K, x1 = 0.587 | 923.859
289.36 K, x1 = 0.615 | 909.942
289.36 K, x1 = 0.629 | 902.109
289.45 K, x1 = 0.246 | 1013.13
289.45 K, x1 = 0.266 | 1012.22
289.45 K, x1 = 0.275 | 1011.52
289.45 K, x1 = 0.3 | 1005.82
289.45 K, x1 = 0.325 | 1001.04
289.45 K, x1 = 0.338 | 998.278
289.45 K, x1 = 0.363 | 996.016
289.45 K, x1 = 0.382 | 994.795
289.45 K, x1 = 0.407 | 994.989
289.45 K, x1 = 0.414 | 995.114
289.45 K, x1 = 0.486 | 977.635
289.45 K, x1 = 0.488 | 975.638
289.45 K, x1 = 0.546 | 951.819
289.45 K, x1 = 0.573 | 936.914
289.45 K, x1 = 0.587 | 923.684
289.45 K, x1 = 0.629 | 901.973
289.46 K, x1 = 0.615 | 903.573
289.55 K, x1 = 0.266 | 1011
289.55 K, x1 = 0.3 | 1005.09
289.55 K, x1 = 0.325 | 1000.44
289.55 K, x1 = 0.407 | 993.27
289.55 K, x1 = 0.486 | 976.784
289.55 K, x1 = 0.546 | 950.242
289.55 K, x1 = 0.573 | 934.004
289.55 K, x1 = 0.629 | 901.33
289.56 K, x1 = 0.246 | 1011.83
289.56 K, x1 = 0.275 | 1010.74
289.56 K, x1 = 0.338 | 998.17
289.56 K, x1 = 0.363 | 995.361
289.56 K, x1 = 0.382 | 993.579
289.56 K, x1 = 0.414 | 993.6
289.56 K, x1 = 0.488 | 974.397
289.56 K, x1 = 0.587 | 923.551
289.56 K, x1 = 0.615 | 903.035
289.65 K, x1 = 0.246 | 1010.76
289.65 K, x1 = 0.266 | 1009.81
289.65 K, x1 = 0.275 | 1009.82
289.65 K, x1 = 0.3 | 1004.38
289.65 K, x1 = 0.325 | 999.918
289.65 K, x1 = 0.363 | 994.656
289.65 K, x1 = 0.382 | 992.659
289.65 K, x1 = 0.407 | 991.642
289.65 K, x1 = 0.414 | 991.992
289.65 K, x1 = 0.486 | 975.844
289.65 K, x1 = 0.488 | 973.516
289.65 K, x1 = 0.546 | 949.056
289.65 K, x1 = 0.573 | 932.207
289.65 K, x1 = 0.587 | 923.409
289.65 K, x1 = 0.615 | 903.013
289.65 K, x1 = 0.629 | 896.019
289.66 K, x1 = 0.338 | 997.588
289.75 K, x1 = 0.246 | 1009.91
289.75 K, x1 = 0.266 | 1008.57
289.75 K, x1 = 0.275 | 1008.78
289.75 K, x1 = 0.3 | 1003.47
289.75 K, x1 = 0.325 | 999.093
289.75 K, x1 = 0.363 | 994.035
289.75 K, x1 = 0.382 | 991.551
289.75 K, x1 = 0.407 | 989.735
289.75 K, x1 = 0.414 | 990.174
289.75 K, x1 = 0.486 | 974.653
289.75 K, x1 = 0.488 | 972.561
289.75 K, x1 = 0.546 | 947.686
289.75 K, x1 = 0.573 | 929.383
289.75 K, x1 = 0.587 | 924.024
289.75 K, x1 = 0.615 | 902.898
289.76 K, x1 = 0.338 | 996.84
289.85 K, x1 = 0.266 | 1007.2
289.85 K, x1 = 0.275 | 1007.7
289.85 K, x1 = 0.3 | 1002.58
289.85 K, x1 = 0.325 | 998.305
289.85 K, x1 = 0.363 | 993.362
289.85 K, x1 = 0.382 | 990.377
289.85 K, x1 = 0.407 | 988.132
289.85 K, x1 = 0.414 | 988.452
289.85 K, x1 = 0.486 | 973.161
289.85 K, x1 = 0.488 | 971.375
289.85 K, x1 = 0.546 | 946.847
289.85 K, x1 = 0.573 | 928.807
289.85 K, x1 = 0.587 | 917.506
289.86 K, x1 = 0.246 | 1009.43
289.86 K, x1 = 0.338 | 996.331
289.86 K, x1 = 0.615 | 902.789
289.95 K, x1 = 0.266 | 1005.77
289.95 K, x1 = 0.275 | 1006.41
